According to patent US20240343704A1, “HALO-SUBSTITUTED AMINO PYRIDINE COMPOUNDS AS INHIBITORS OF THE HAEMATOPOIETIC PROGENITOR KINASE 1 (HPK1)” (priority 2021, published 2024):

What was measured:
[1] = biological target: T1, Recombinant (1-346) HPK1 (h) (Homo sapiens, UniProt Q92918); assay: HPK1 Human STE Kinase Enzymatic Radiometric Assay; type: biochemical; conditions: read-out: HPK1 IC50 nM Range*
T1 construct: Recombinant (1-346) HPK1 (h) is incubated with 8 mM MOPS pH 7.0
T1 sequence (Q92918 1-346): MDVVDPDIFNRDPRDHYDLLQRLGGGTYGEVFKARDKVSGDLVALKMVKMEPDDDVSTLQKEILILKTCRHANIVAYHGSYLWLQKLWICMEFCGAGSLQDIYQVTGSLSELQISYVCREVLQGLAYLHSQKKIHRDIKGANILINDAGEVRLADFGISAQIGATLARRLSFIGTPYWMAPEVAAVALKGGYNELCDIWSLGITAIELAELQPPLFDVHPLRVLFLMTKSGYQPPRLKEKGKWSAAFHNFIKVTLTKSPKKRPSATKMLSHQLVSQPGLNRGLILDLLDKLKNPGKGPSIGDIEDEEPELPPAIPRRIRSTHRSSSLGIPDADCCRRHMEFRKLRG
Experimental: A stock solution of 10 mM of test compound is prepared in DMSO. The compound plate was prepared by 3-fold and 9-point serial dilutions. […] The reaction is initiated by The addition of the Mg/ATP mix. After incubation for 40 minutes at RT, the reaction is stopped by the addition of phosphoric acid to a concentration of 0.5%.

[2] = biological target: Lck (h) (Homo sapiens, UniProt P06239); assay: Lck Human  Kinase Enzymatic Radiometric Assay; type: biochemical; conditions: read-out: Lck IC50 nM Range*
Method in brief: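 Substrate 33P-incorporation measured by scintillation counting after spotting on P30 filtermat and phosphoric acid washes. Human Lck reacted 40 min at RT in 50 mM Tris pH 7.5 with 10 mM MgAcetate, [gamma-33P]-ATP, 250 uM Cdc2 peptide, 0.1 mM EGTA and 0.1 mM Na3VO4.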

Sequence of Lck (h) (P06239 whole entry): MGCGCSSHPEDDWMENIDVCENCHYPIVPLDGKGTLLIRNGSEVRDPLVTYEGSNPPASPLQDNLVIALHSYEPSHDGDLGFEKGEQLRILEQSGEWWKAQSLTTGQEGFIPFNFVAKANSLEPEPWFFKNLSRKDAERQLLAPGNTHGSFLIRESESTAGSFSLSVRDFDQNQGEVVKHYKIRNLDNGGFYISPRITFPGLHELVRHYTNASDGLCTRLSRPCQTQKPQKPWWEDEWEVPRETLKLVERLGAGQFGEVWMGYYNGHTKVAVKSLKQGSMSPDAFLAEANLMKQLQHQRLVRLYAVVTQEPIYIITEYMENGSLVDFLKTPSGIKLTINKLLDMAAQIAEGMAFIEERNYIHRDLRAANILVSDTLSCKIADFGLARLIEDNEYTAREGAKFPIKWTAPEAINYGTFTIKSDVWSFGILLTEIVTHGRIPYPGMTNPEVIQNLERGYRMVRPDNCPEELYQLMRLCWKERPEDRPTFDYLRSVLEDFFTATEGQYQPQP

Compound | IC50 [1] [nM] | IC50 [2] [nM]
Nc1nc(F)c(-c2ccc3c(c2)CCNC3=O)cc1-c1ccc2c(c1)CCNC2=O [I-333, 6,6′-(2-amino-6-fluoropyridine-3,5-diyl)bis(3,4-dihydroisoquinolin-1(2H)-one)] | 0.1 to 10 | > 1000
CC(C)N1CCc2ccc(-c3cc(-c4ccc5c(c4)CCNC5=O)c(N)nc3F)cc2C1 [I-335, 6-(2-amino-6-fluoro-5-(2-isopropyl-1,2,3,4-tetrahydroisoquinolin-7-yl)pyridin-3-yl)-3,4-dihydroisoquinolin-1(2H)-one] | 11 to 100 | > 1000
CC(C)N1CCN(c2ccc(-c3cc(-c4cc(F)c5c(c4)CCNC5=O)c(N)nc3F)cc2)CC1 [I-336, 6-(2-amino-6-fluoro-5-(4-(4-isopropylpiperazin-1-yl)phenyl)pyridin-3-yl)-8-fluoro-3,4-dihydroisoquinolin-1(2H)-one] | 0.1 to 10 | 101 to 1000
Nc1nc(F)c(-c2ccc(OC3CCN(C(=O)CC4CC4)CC3)cc2)cc1-c1ccc2c(c1)CCNC2=O [I-337, 6-(2-amino-5-(4-((1-(2-cyclopropylacetyl)piperidin-4-yl)oxy)phenyl)-6-fluoropyridin-3-yl)-3,4-dihydroisoquinolin-1(2H)-one] | 11 to 100 | > 1000
CC(=O)N1CC(Oc2ccc(-c3cc(-c4cc5c(cc4F)C(=O)NCC5)c(N)nc3F)cc2)C1 [I-341, 6-(5-(4-((1-acetylazetidin-3-yl)oxy)phenyl)-2-amino-6-fluoropyridin-3-yl)-7-fluoro-3,4-dihydroisoquinolin-1(2H)-one] | 11 to 100 | > 1000
CC(=O)N1CC(F)(c2ccc(-c3cc(-c4ccc5c(c4)CCNC5=O)c(N)nc3F)cc2)C1 [I-342, 6-(5-(4-(1-acetyl-3-fluoroazetidin-3-yl)phenyl)-2-amino-6-fluoropyridin-3-yl)-3,4-dihydroisoquinolin-1(2H)-one] | 0.1 to 10 | > 1000
CN1C[C@H]2C[C@@]2(c2ccc(-c3cc(-c4cc5c(cc4F)C(=O)NCC5)c(N)nc3F)cc2)C1 [I-343, 6-(2-amino-6-fluoro-5-(4-((1R,5S)-3-methyl-3-azabicyclo[3.1.0]hexan-1-yl)phenyl)pyridin-3-yl)-7-fluoro-3,4-dihydroisoquinolin-1(2H)-one] | 0.1 to 10 | > 1000
CN1C[C@@H]2C[C@]2(c2ccc(-c3cc(-c4cc5c(cc4F)C(=O)NCC5)c(N)nc3F)cc2)C1 [I-344, 6-(2-amino-6-fluoro-5-(4-((1S,5R)-3-methyl-3-azabicyclo[3.1.0]hexan-1-yl)phenyl)pyridin-3-yl)-7-fluoro-3,4-dihydroisoquinolin-1(2H)-one] | 0.1 to 10 | > 1000
Nc1nc(F)c(-c2ccc(N3CCS(=O)(=O)CC3)cc2)cc1-c1cc2c(cc1F)C(=O)NCC2 [I-346, 6-(2-amino-5-(4-(1,1-dioxidothiomorpholino)phenyl)-6-fluoropyridin-3-yl)-7-fluoro-3,4-dihydroisoquinolin-1(2H)-one] | 0.1 to 10 | > 1000
Nc1nc(F)c(-c2ccc(N3CCSCC3)cc2)cc1-c1cc2c(cc1F)C(=O)NCC2 [I-347, 6-(2-amino-6-fluoro-5-(4-thiomorpholinophenyl)pyridin-3-yl)-7-fluoro-3,4-dihydroisoquinolin-1(2H)-one] | 0.1 to 10 | > 1000
COc1cc(-c2cc(-c3ccc(N4CCN(C(C)C)CC4)cc3)c(F)nc2N)cc2c1C(=O)NCC2 [I-354, 6-(2-amino-6-fluoro-5-(4-(4-isopropylpiperazin-1-yl)phenyl)pyridin-3-yl)-8-methoxy-3,4-dihydroisoquinolin-1(2H)-one] | 101 to 1000 | 11 to 100
CC(C)N1CCN(c2ccc(-c3cc(-c4ccc5c(c4)OCCNC5=O)c(N)nc3F)cc2)CC1 [I-358, 8-(2-amino-6-fluoro-5-(4-(4-isopropylpiperazin-1-yl)phenyl)pyridin-3-yl)-3,4-dihydrobenzo[f][1,4]oxazepin-5(2H)-one] | 0.1 to 10 | > 1000

Further lines, results first:

IC50 [1] [nM] | IC50 [2] [nM] | Compound
11 to 100 | > 1000 | Nc1nc(F)c(-c2ccc3c(c2)CNCC3)cc1-c1ccc2c(c1)CCNC2=O [I-334, 6-(2-amino-6-fluoro-5-(1,2,3,4-tetrahydroisoquinolin-7-yl)pyridin-3-yl)-3,4-dihydroisoquinolin-1(2H)-one 2,2,2-trifluoroacetate]
11 to 100 | > 1000 | Nc1nc(F)c(-c2ccc(OC3CCN(C4COC4)CC3)cc2)cc1-c1ccc2c(c1)CCNC2=O [I-338, 6-(2-amino-6-fluoro-5-(4-((1-(oxetan-3-yl)piperidin-4-yl)oxy)phenyl)pyridin-3-yl)-3,4-dihydroisoquinolin-1(2H)-one]
11 to 100 | > 1000 | Nc1nc(F)c(-c2ccc(OC3CNC3)cc2)cc1-c1cc2c(cc1F)C(=O)NCC2 [I-339, 6-(2-amino-5-(4-(azetidin-3-yloxy)phenyl)-6-fluoropyridin-3-yl)-7-fluoro-3,4-dihydroisoquinolin-1(2H)-one 2,2,2-trifluoroacetate]
0.1 to 10 | > 1000 | Nc1nc(F)c(-c2ccc(C3(F)CNC3)cc2)cc1-c1ccc2c(c1)CCNC2=O [I-340, 6-(2-amino-6-fluoro-5-(4-(3-fluoroazetidin-3-yl)phenyl)pyridin-3-yl)-3,4-dihydroisoquinolin-1(2H)-one 2,2,2-trifluoroacetate]
0.1 to 10 | > 1000 | CC(C)N1CCN(c2ccc(-c3cc(-c4ccc5c(c4)CCNC5=O)c(N)nc3F)c(F)c2F)CC1 [I-345, 6-(2-amino-5-(2,3-difluoro-4-(4-isopropylpiperazin-1-yl)phenyl)-6-fluoropyridin-3-yl)-3,4-dihydroisoquinolin-1(2H)-one]
0.1 to 10 | > 1000 | Nc1nc(F)c(-c2ccc(OC3CCN(C(=O)CCCC[C@@H]4SC[C@@H]5NC(=O)N[C@@H]54)CC3)cc2)cc1-c1ccc2c(c1)CCNC2=O [I-348, (3aS,4S,6aR)-4-(5-(4-(4-(6-amino-2-fluoro-5-(1-oxo-1,2,3,4-tetrahydroisoquinolin-6-yl)pyridin-3-yl)phenoxy)piperidin-1-yl)-5-oxopentyl)tetrahydro-1H-thieno[3,4-d]imidazol-2(3H)-one]
0.1 to 10 | > 1000 | CC(C)N1CCN(c2ccc(-c3cc(-c4cc5c(cc4Cl)C(=O)NCC5)c(N)nc3F)cc2)CC1 [I-349, 6-(2-amino-6-fluoro-5-(4-(4-isopropylpiperazin-1-yl)phenyl)pyridin-3-yl)-7-chloro-3,4-dihydroisoquinolin-1(2H)-one]
0.1 to 10 | 101 to 1000 | COCCN1CCC(c2ccc(-c3cc(-c4cc(F)c5c(c4)CCNC5=O)c(N)nc3F)cc2)CC1 [I-350, 6-(2-amino-6-fluoro-5-(4-(1-(2-methoxyethyl)piperidin-4-yl)phenyl)pyridin-3-yl)-8-fluoro-3,4-dihydroisoquinolin-1(2H)-one]
0.1 to 10 | > 1000 | CC(C)[C@@H]1CN(c2ccc(-c3cc(-c4cc(F)c5c(c4)CCNC5=O)c(N)nc3F)cc2)CCO1 [I-351, (R)-6-(2-amino-6-fluoro-5-(4-(2-isopropylmorpholino)phenyl)pyridin-3-yl)-8-fluoro-3,4-dihydroisoquinolin-1(2H)-one]
0.1 to 10 | > 1000 | CN1C[C@H]2C[C@@]2(c2ccc(-c3cc(-c4cc(F)c5c(c4)CCNC5=O)c(N)nc3F)cc2)C1 [I-352, 6-(2-amino-6-fluoro-5-(4-((1R,5S)-3-methyl-3-azabicyclo[3.1.0]hexan-1-yl)phenyl)pyridin-3-yl)-8-fluoro-3,4-dihydroisoquinolin-1(2H)-one]
0.1 to 10 | 101 to 1000 | CN1C[C@@H]2C[C@]2(c2ccc(-c3cc(-c4cc(F)c5c(c4)CCNC5=O)c(N)nc3F)cc2)C1 [I-353, 6-(2-amino-6-fluoro-5-(4-((1S,5R)-3-methyl-3-azabicyclo[3.1.0]hexan-1-yl)phenyl)pyridin-3-yl)-8-fluoro-3,4-dihydroisoquinolin-1(2H)-one]
101 to 1000 | > 1000 | CC(C)N1CCN(c2ccc(-c3cc(-c4cc5c(c(N(C)C)c4)C(=O)NCC5)c(N)nc3F)cc2)CC1 [I-355, 6-(2-amino-6-fluoro-5-(4-(4-isopropylpiperazin-1-yl)phenyl)pyridin-3-yl)-8-(dimethylamino)-3,4-dihydroisoquinolin-1(2H)-one]
11 to 100 | 101 to 1000 | CNc1cc(-c2cc(-c3ccc(N4CCN(C(C)C)CC4)cc3)c(F)nc2N)cc2c1C(=O)NCC2 [I-356, 6-(2-amino-6-fluoro-5-(4-(4-isopropylpiperazin-1-yl)phenyl)pyridin-3-yl)-8-(methylamino)-3,4-dihydroisoquinolin-1(2H)-one]
101 to 1000 | 101 to 1000 | CC(C)N1CCN(c2ccc(-c3cc(-c4cc(N)c5c(c4)CCNC5=O)c(N)nc3F)cc2)CC1 [I-357, 8-amino-6-(2-amino-6-fluoro-5-(4-(4-isopropylpiperazin-1-yl)phenyl)pyridin-3-yl)-3,4-dihydroisoquinolin-1(2H)-one]
